# In patent US20150289512A1, “METHOD FOR PROMOTING PLANT GROWTH” (SUMITOMO CHEMICAL COMPANY, LIMITED, priority 2012, published 2015):
# Legend:
# Format in all cases: in vivo
# [1] = test system: Corn seeds (variety: Pioneer 120 31P41); assay: Test Example 14: growth promotion under low-temperature stress by soil drench treatment of corn; conditions: soil drench 20 ml, low-temperature stress 5 days at 2.5° C., health score 0-5, average of 4 individuals
# Experimental: Test for Evaluating Growth Promotion Under Low-Temperature Stress by Soil Drench Treatment of Corn
# Corn seeds (variety: Pioneer 120 31P41) were seeded in a culture soil (Aisai) in a plastic pot (φ55 mm×height of 58 mm), and cultivated for 7 days at 20-25° C., an illuminance of about 5,000 lux, and a day length of 16 hours.
# A DMSO solution, which contained one of the compounds 1 to 9, 16, 17, 20, 23, 24, 28 to 32, 34, 45, 48, 50, 82 and 85 of the present invention at a concentration of 1,000-fold concentration of each test concentration, was prepared, and then diluted with distilled water to obtain each test solution. After that, 20 ml of the obtained test solution was used to perform soil drench treatment on the foot of the test plants. The test plants were cultivated for 2 days under the conditions of a temperature of 27° C., a humidity of 40-80%, an illuminance of about 5,000 lux, and a day length of 16 hours. This was used as a test plot treated with the compound. A plot having undergone the soil drench treatment with 20 ml of a 0.1% DMSO aqueous solution instead of the above DMSO solution containing the compound was used as an untreated control plot.
# The plants having undergone the soil drench treatment were cultivated for 5 days under the conditions of a temperature of 2.5° C., a humidity of 40-80%, an illuminance of about 5,000 lux, and a day length of 16 hours, thereby exposing to low-temperature stress. After the exposure to the low-temperature stress, the plants were cultivated for 4 days under the conditions of a temperature of 27° C., a humidity of 40-80%, an illuminance of about 5,000 lux, and a day length of 16 hours.
# After the cultivation, the health of each plant was scored according to the following evaluation index.
# 5: 4 or more leaves in which ⅔ or more of the area was healthy
# 4: 3 leaves in which ⅔ or more of the area was healthy
# 3: 2 leaves in which ⅔ or more of the area was healthy
# 2: 1 leaf in which ⅔ or more of the area was healthy
# 1: No leaf in which ⅔ or more of the area was healthy
# An average of the scores of the health of 4 individuals was determined.
# [2] = test system: Rice (variety: Nipponbare); assay: Test Example 1: promotion of root growth by hydroponics of rice, 10 ppm; conditions: hydroponic solution containing the test compound at 10 ppm, average of 4 or 5 individuals
# Procedure, shortened: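 Surface-sterilised seeds germinated 3 days in the dark at 28° C in hydroponic solution with compound at 10 ppm, then grown 3 days hydroponically with compound at 10 ppm (26° C, 4,000 lux, 16 h day, 50% humidity). Seminal root length measured by image analysis, averaged over 4 or 5 plants per plot.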
# Nicotiana benthamiana [3] = assay: Test Example 5: growth promotion under low-temperature stress by hydroponics of Nicotiana benthamiana, 1 ppm; conditions: 1 ppm in medium, low-temperature stress 7 days at 1.5±1.0° C., green leaf area 3 days later, equation (1)
# Experimental: (§1) Test for Evaluating Growth Promotion Under Low-Temperature Stress by Hydroponics of Nicotiana benthamiana
# A DMSO solution, which contained one of the compounds 2, 4, 5, 6, 11, 12, 17, 20, 21, 28, 30, 34, 36, 37, 51, 52, 53, 55, 56, 58, 59, 60, 64, 65, 66, 68, 69, 70, 74, 77, 82, 83, 84, 86 and 87 of the present invention at a concentration of 1,000 ppm, was prepared. The DMSO solution of the compound of the present invention was added at a volume ratio of 1/1,000 to the Murashige•Scoog medium of a ½-fold concentration (a medium containing 2.3 g of mixed salts for the Murashige•Scoog medium (manufactured by Wako Pure Chemical Industries, Ltd.), 200 mg of Myo-inositol (manufactured by Sigma-Aldrich Co. LLC.), 2 mg of nicotinic acid (manufactured by Wako Pure Chemical Industries, Ltd.), 2 mg of pyridoxine hydrochloride (manufactured by Wako Pure Chemical Industries, Ltd.), 20 mg of thiamine hydrochloride (manufactured by Wako Pure Chemical Industries, Ltd.), 20 g of sucrose (manufactured by Wako Pure Chemical Industries, Ltd.), and 1 g of MES (manufactured by DOJINDO LABORATORIES) per 1 L of water and having pH adjusted to 5.8), thereby preparing a medium containing the compound of the present invention at a concentration of 1 ppm.
# (§2) Seeds of Nicotiana benthamiana were seeded in the 5 μL of the medium and cultured overnight at 22° C. Thereafter, 45 μL of the medium containing the compound of the present invention at a concentration of 1 ppm was added thereto, and the seeds are cultured for 7 days at 22° C., an illuminance of 4,000 lux, and a day length of 16 hours, and the nursery plants raised from the Nicotiana benthamiana were treated with the compound. Moreover, instead of the above medium, a test plot, which was obtained by performing the same treatment by using a medium prepared by adding DMSO to the Murashige•Scoog medium of ½-fold concentration at a volume ratio of 1/1,000, was used as a control plot not treated with the compound.
# (§3) The nursery plants of the Nicotiana benthamiana treated with the compound were subjected to low-temperature treatment by being cultivated for 7 days at 1.5±1.0° C., an illuminance of 2,000 lux, and a day length of 16 hours.
# The nursery plants of the Nicotiana benthamiana having undergone the low-temperature stress treatment were cultured for 3 days at 22° C., an illuminance of 4,000 lux, and a day length of 16 hours. Thereafter, the area of green leaf was quantified by Scanalyzer HTS (manufactured by LemnaTec GmbH). Moreover, the value of the control plot not treated with the compound that had not yet been subjected to the low-temperature stress treatment was measured in the same manner. A value of a relative leaf area was calculated based on the following equation (1), and if the value of a relative leaf area was 5 or greater, the compound was evaluated to have a mitigating effect. As a result of the evaluation, it was confirmed that when the plant was treated with one of the compounds 2, 4, 5, 6, 11, 12, 17, 20, 21, 28, 30, 34, 36, 37, 51, 52, 53, 55, 56, 58, 59, 60, 64, 65, 66, 68, 69, 70, 74, 77, 82, 83, 84, 86 and 87 of the present invention at 1 ppm, the value of a relative leaf area was 5 or greater, compared to the area of green leaf of the control plot not treated with compound. Accordingly, it was confirmed that the treatment using the compound of the present invention brings about a growth promotion effect.
# (§4) Relative leaf area=100*(a green area of a plot treated with the compound of the present invention−a green area of a control plot not treated with the compound of the present invention)/(a green area of a control plot not treated with the compound of the present invention that has not yet been subjected to low-temperature stress treatment−a green area of a control plot not treated with the compound of the present invention) Equation (1): […]
# Nicotiana benthamiana [4] = assay: Test Example 6: growth promotion under low-temperature stress by hydroponics of Nicotiana benthamiana, 0.1 ppm; conditions: 0.1 ppm in medium, low-temperature stress 7 days at 1.5±1.0° C., green leaf area 3 days later, equation (1)
# Experimental: as §1
# A DMSO solution, which contained one of the compounds 3, 7, 14, 16, 36, 39, 43, 45, 50, 52, 53, 54, 56, 57, 62, 63, 64, 65, 68, 69, 70, 71, 73, 74, 76, 77, 79, 80, 81, 84, 85, 86 and 87 of the present invention at a concentration of 100 ppm, was prepared. The DMSO solution of the compound of the present invention was added at a volume ratio of 1/1,000 to the Murashige•Scoog medium of a ½-fold concentration for the Murashige•Scoog medium (a medium containing 2.3 g of mixed salts (manufactured by Wako Pure Chemical Industries, Ltd.), 200 mg of Myo-inositol (manufactured by Sigma-Aldrich Co. LLC.), 2 mg of nicotinic acid (manufactured by Wako Pure Chemical Industries, Ltd.), 2 mg of pyridoxine hydrochloride (manufactured by Wako Pure Chemical Industries, Ltd.), 20 mg of thiamine hydrochloride (manufactured by Wako Pure Chemical Industries, Ltd.), 20 g of sucrose (manufactured by Wako Pure Chemical Industries, Ltd.), and 1 g of MES (manufactured by DOJINDO LABORATORIES) per 1 L of water and having pH adjusted to 5.8), thereby preparing a medium containing the compound of the present invention at a concentration of 0.1 ppm.
# as §2, with “concentration of 0.1 ppm was” for “concentration of 1 ppm was”, “seeds are cultivated for 7” for “seeds are cultured for 7”, “the above medium a test” for “the above medium, a test”
# as §3
# The nursery plants of the Nicotiana benthamiana having undergone the low-temperature stress treatment were cultivated for 3 days at 22° C., an illuminance of 4,000 lux, and a day length of 16 hours. Thereafter, the area of green leaf was quantified by Scanalyzer HTS (manufactured by LemnaTec GmbH). Moreover, the value of the control plot not treated with the compound that had not yet been subjected to the low-temperature stress treatment was measured in the same manner. A value of a relative leaf area was calculated based on the following equation (1), and if the value of a relative leaf area was 5 or greater, the compound was evaluated to have a mitigating effect. As a result of the evaluation, it was confirmed that when the plant was treated with one of the compounds 3, 7, 14, 16, 36, 39, 43, 45, 50, 52, 53, 54, 56, 57, 62, 63, 64, 65, 68, 69, 70, 71, 73, 74, 76, 77, 79, 80, 81, 84, 85, 86 and 87 of the present invention at 0.1 ppm, the value of a relative leaf area was 5 or greater, compared to the area of green leaf of the control plot not treated with compound. Accordingly, it was confirmed that the treatment using the compound of the present invention brings about a growth promotion effect.
# as §4, with “treatment−green” for “treatment−a green”
smiles,measurement,setting,value
O=C(O)c1nc2ccccc2s1 [Compound 32],Relative value of score (%- untreated control plot),[1]; concentration tested 0.3 ppm,>5%
same,Relative value of length of seminal root (%-untreated control plot),[2],>5%
CCOC(=O)c1oc2ccccc2c1C(F)(F)F [Compound 84],relative leaf area (% of untreated control) at 1 ppm,Nicotiana benthamiana [3],≥ 5%
same,relative leaf area (% of untreated control) at 0.1 ppm,Nicotiana benthamiana [4],≥ 5%
same,change in vivo at 10 ppm,"[2]; Oryza sativa, read-out: Relative value of length of seminal root (%-untreated control plot)",> 5%
CCOC(=O)c1nc2ccccc2s1 [Compound 31],Relative value of score (%- untreated control plot),[1]; concentration tested 0.3 ppm,>5%
COC(=O)c1nc2ccccc2n1C [Compound 23],Relative value of score (%- untreated control plot),[1]; concentration tested 10 ppm,>5%
same,Relative value of length of seminal root (%-untreated control plot),[2],>5%
"COC(=O)c1nc2cc(C(F)(F)F)ccc2n1C [Compound 24, methyl 1-methyl-5-trifluoromethylbenzimidazole-2-carboxylate]",change in vivo at 10 ppm,"[1]; Zea mays, 120 h, concentration tested 10 ppm, read-out: Relative value of score (%- untreated control plot)",> 5%
CCOC(=O)c1cc2cc(C(F)(F)F)ccc2[nH]1 [Compound 9],Relative value of score (%- untreated control plot),[1]; concentration tested 3 ppm,>5%
same,Relative value of length of seminal root (%-untreated control plot),[2],>5%
COC(=O)c1nc2c(F)cc(F)cc2s1 [Compound 87],relative leaf area (% of untreated control) at 1 ppm,Nicotiana benthamiana [3],≥ 5%
same,relative leaf area (% of untreated control) at 0.1 ppm,Nicotiana benthamiana [4],≥ 5%
